Patent US20260234144A1 (TAY THERAPEUTICS LIMITED, priority 2023, published 2026)

Test system: R223X stop codon in the mutated luciferase gene, ADXC8 luciferase reporter cell line
Test: cells
Format: cell-based
Conditions: ADXC8 cells, 24 hours; for EC (100% of 200 uM G418 response) / Emax: 24 h; for EC (100% of 200 uM G418 response): read-out: pC100%, negative logarithm of the concentration giving the same response as 200 μM G418; for Emax: read-out: Fold Over Control, maximum fold response relative to 200 μM G418; for pC100%: negative logarithm of the concentration giving the same response as 200 μM G418

Row | SMILES | EC (100% of 200 uM G418 response) [µM] | Emax [%] | pC100% | Fold Over Control (maximum fold response relative to 200 μM G418)
1 | CN1CCC(Nc2nc(N)c3c4c(cnc3n2)CCC4)CC1 [Example 274] | 1 to 10 | – | – | –
2 | Cc1nc2nc(NC3CCN(C)CC3)nc(N)c2c(C)c1Br [Example 22, 6-bromo-5,7-dimethyl-N^2-(1-methylpiperidin-4-yl)pyrido[2,3-d]pyrimidine-2,4-diamine] | 1 to 10 | 100 to 3000 | – | –
3 | C#Cc1cnc2nc(NC3CCN(C)CC3)nc(N)c2c1 [Example 278] | > 31.6 | 0 to 100 | – | –
4 | CNc1nc(N[C@H]2CN[C@H](COC)C2)nc2nc(C)cc(C)c12 [Example 414] | 1 to 10 | – | – | –
5 | CNc1nc(N[C@H]2CCCN(C)CC2)nc2nc(C)cc(C)c12 [Example 386] | 1 to 10 | 100 to 3000 | – | –
6 | Cc1cc(C)c2c(N)nc(NC3CNC3)nc2n1 [Example 214] | > 31.6 | 0 to 100 | – | –
7 | CC(=O)Nc1cc(C#N)ccc1CN1CCC(Nc2nc(N)c3c(C)cc(C)nc3n2)CC1 [Example 511, N-(2-((4-((4-amino-5,7-dimethylpyrido[2,3-d]pyrimidin-2-yl)amino)piperidin-1-yl)methyl)-5-cyanophenyl)acetamide] | 1 to 10 | 100 to 3000 | – | –
8 | CNc1nc(N[C@H]2CN(C)C[C@@H]2OC(=O)C(C)(C)C)nc2nc3c(c(C)c12)CCC3 [Example 681] | 0.1 to 1 | 100 to 3000 | – | –
9 | CCC(=O)O[C@H]1CN(C)C[C@@H]1Nc1nc(NC)c2c(C)c3c(nc2n1)CCC3 [Example 682] | 0.1 to 1 | 100 to 3000 | – | –
10 | CNc1nc(NC2CC[C@H]2N(C)C)nc2nc(C)cc(C)c12 (stereo partly shown) [Example 412] | 1 to 10 | – | – | –
11 | CC(=O)Nc1ccccc1-c1ccc2c(N)nc(NC3CCN(C)CC3)nc2n1 [Example 60] | > 100 | 0 to 100 | – | –
12 | Cc1cc(C)c2c(N)nc(NCCCN3CCOCC3)nc2n1 [Example 6, 5,7-dimethyl-N^2-(3-morpholinopropyl)pyrido[2,3-d]pyrimidine-2,4-diamine] | 10 to 100 | 100 to 3000 | – | –
13 | CNc1cc(N[C@H]2CN(C)C[C@H]2O)nc2nc3c(c(C)c12)CCC3 [Example 619] | 1 to 10 | 100 to 3000 | – | –
14 | Cc1c2c(nc3nc(NC4CCN(Cc5ccc(B(O)O)cc5)CC4)nc(N)c13)CCC2 [Example 668] | 1 to 10 | 100 to 3000 | – | –
15 | CNc1nc(N[C@H]2CN(C)C[C@H]2O)nc2nc(C)c3c(c12)CCC3 [Example 364] | 1 to 10 | 100 to 3000 | – | –
16 | Cc1nc2nc(NC3CCN(Cc4cc(F)cc(F)c4O)CC3)nc(N)c2c2c1CCC2 [Example 536] | 1 to 10 | 100 to 3000 | – | –
17 | Cc1nc2nc(NC3CCN(C)CC3)nc(N)c2c(C)c1C [Example 121, 5,6,7-trimethyl-N2-(1-methylpiperidin-4-yl)pyrido[2,3-d]pyrimidine-2,4-diamine] | 1 to 10 | 100 to 3000 | – | –
18 | Cc1cc(C)c2c(N)nc(NC3CCN(Cc4ccc(C#N)c(F)c4)CC3)nc2n1 [Example 570] | 0.1 to 1 | 100 to 3000 | – | –
19 | CN1CCC(Nc2nc(N)c3ccc(Nc4ccccc4)nc3n2)CC1 [Example 35, N^2-(1-methylpiperidin-4-yl)-N^7-phenylpyrido[2,3-d]pyrimidine-2,4,7-triamine] | > 100 | 0 to 100 | – | –

Row | SMILES | EC (100% of 200 uM G418 response) [µM] | Emax [%] | pC100% | Fold Over Control (maximum fold response relative to 200 μM G418)
20 | CNc1nc(N[C@H]2CN(Cc3ccccc3)C[C@H]2F)nc2nc(C)cc(C)c12 [Example 621] | 10 to 100 | 100 to 3000 | – | –
21 | Cc1cc(C)c2c(N)nc(NC3CCN(Cc4cccc(C(F)(F)F)c4)CC3)nc2n1 [Example 492] | 10 to 100 | 100 to 3000 | – | –
22 | COC(C)c1ccnc2nc(NC3CCN(C)CC3)nc(N)c12 (stereo not shown) [Example 252, 5-(1-methoxyethyl)-N^2-(1-methylpiperidin-4-yl)pyrido[2,3-d]pyrimidine-2,4-diamine] | > 100 | 0 to 100 | – | –
23 | CCNc1nc(N[C@@]23CNC[C@@H]2C3)nc2nc(C)cc(C)c12 [Example 419] | 0.1 to 1 | – | – | –
24 | CNc1nc(NC23CCCN(CC2)C3)nc2nc(C)cc(C)c12 (stereo not shown) [Example 416] | > 31.6 | 0 to 100 | – | –
25 | CN1CCC(Nc2nc(N)c3ccc(-c4cccc(C(F)(F)F)c4)nc3n2)CC1 [Example 67] | 1 to 10 | 100 to 3000 | – | –
26 | CN1CCC(Nc2nc(N)c3ccc(-c4cccc(Cl)c4)nc3n2)CC1 [Example 91] | 1 to 10 | – | – | –
27 | Cc1cc(C)c2c(N)nc(NC3C4CNC[C@@H]43)nc2n1 (stereo partly shown) [Example 203] | 1 to 10 | 100 to 3000 | – | –
28 | [2H]C([2H])([2H])Nc1nc(NC2CCN(C([2H])([2H])[2H])CC2)nc2nc(C)cc(C)c12 [Example 512, 5,7-dimethyl-N^4-(methyl-da)-N^2-(1-(methyl-da)piperidin-4-yl)pyrido[2,3-d]pyrimidine-2,4-diamine] | 0.1 to 1 | – | – | –
29 | Cc1cc(C)c2c(N)nc(N[C@@H]3CN[C@@H](C)C3)nc2n1 [Example 349] | 10 to 100 | 100 to 3000 | – | –
30 | CNc1nc(N[C@H]2CNC[C@H](O)C2)nc2nc(C)cc(C)c12 [Example 611] | 0.1 to 1 | – | – | –
31 | Cc1cc(C)c2c(N)nc(NC3CC34CCNCC4)nc2n1 (stereo not shown) [Example 640] | > 31.6 | 0 to 100 | – | –
32 | COc1cccc(-c2ccc3c(N)nc(NC4CCN(C)CC4)nc3n2)c1 [Example 100] | 1 to 10 | 100 to 3000 | – | –
33 | Cc1nc2nc(NC3CCN(C)CC3)nc(N)c2c2ccccc12 [Example 9, 6-methyl-N^3-(1-methylpiperidin-4-yl)pyrimido[4,5-c]isoquinoline-1,3-diamine] | 1 to 10 | 100 to 3000 | – | –
34 | CNC(=O)c1ccccc1-c1ccc2c(N)nc(NC3CCN(C)CC3)nc2n1 [Example 107] | > 100 | 0 to 100 | – | –
35 | CN1CCC(Nc2nc(N)c3ccc(-c4ccc(C#N)cc4)nc3n2)CC1 [Example 95] | 10 to 100 | – | – | –
36 | Cc1cc(C)c2c(N)cc(NC3CCN(C)CC3)nc2n1 [Example 291] | 1 to 10 | 100 to 3000 | – | –
37 | Cc1cc(C)c2c(N)nc(NC3CCN(C4COC4)CC3)nc2n1 [Example 197] | > 31.6 | 0 to 100 | – | –
38 | CNc1nc(NC2CCCN3CCCC23)nc2nc(C)cc(C)c12 (stereo not shown) [Example 598] | – | 100 to 3000 | + (pC100% > 4.0 ≤ 5.0) | –

Row | SMILES | EC (100% of 200 uM G418 response) [µM] | Emax [%] | pC100% | Fold Over Control (maximum fold response relative to 200 μM G418)
39 | CNc1nc(NC2C3CCC2CN(C(C)C)C3)nc2nc(C)cc(C)c12 (single isomer, unassigned) [Example 436] | – | – | + (pC100% > 4.0 ≤ 5.0) | ## (Fold over Ctrl > 1 ≤ 30)
40 | Cc1cc(C)c2c(N)nc(NC3CCN(Cc4ccccn4)CC3)nc2n1 [Example 471] | 1 to 10 | 100 to 3000 | – | –
41 | CN1CCC(Nc2nc(N)c3ccc(Oc4ccccc4)nc3n2)CC1 [Example 32, N^2-(1-methylpiperidin-4-yl)-7-phenoxypyrido[2,3-d]pyrimidine-2,4-diamine] | 10 to 100 | 100 to 3000 | – | –
42 | Cc1cc(C)c2c(N)nc(NC3CCN(Cc4ccc(C(F)(F)F)cc4)CC3)nc2n1 [Example 456] | 1 to 10 | 100 to 3000 | – | –
43 | CN1CCC(Nc2nc(N)c3ccc(-c4cncn4C)nc3n2)CC1 [Example 114] | > 100 | 0 to 100 | – | –
44 | COc1ccc(CNc2ccc3c(N)nc(NC4CCN(C)CC4)nc3n2)c(OC)c1 [Example 41, N^7-(2,4-dimethoxybenzyl)-N2-(1-methylpiperidin-4-yl)pyrido[2,3-d]pyrimidine-2,4,7-triamine] | > 100 | 0 to 100 | – | –
45 | Cc1cc(C)c2c(N)nc(NCCCN3CCCCC3)nc2n1 [Example 7, 5,7-dimethyl-N^2-(3-(piperidin-1-yl)propyl)pyrido[2,3-d]pyrimidine-2,4-diamine] | 1 to 10 | 100 to 3000 | – | –
46 | CNc1nc(N[C@@H]2CN(C)C[C@H]2C)nc2nc(C)cc(C)c12 [Example 378] | 1 to 10 | 100 to 3000 | – | –
47 | Cc1c2c(nc3nc(NC4CCN(Cc5ccccc5B(O)O)CC4)nc(N)c13)CCC2 [Example 670] | 0.1 to 1 | 100 to 3000 | – | –
48 | CNc1nc(N[C@H]2CN(Cc3ccccc3)C[C@@H]2O)nc2nc(C)cc(C)c12 [Example 622] | 1 to 10 | 100 to 3000 | – | –
49 | CN1CCC(Nc2nc(N)c3ccc(-c4cccc(N)c4)nc3n2)CC1 [Example 93] | 10 to 100 | 100 to 3000 | – | –
50 | CNc1nc(N[C@H]2CN(C)C[C@H]2O)nc2nc3c(c(C)c12)CCC3 [Example 361] | 1 to 10 | 100 to 3000 | – | –
51 | CN1CCC(Nc2nc(N)c3cc(-c4ccn[nH]4)cnc3n2)CC1 [Example 646] | > 100 | 0 to 100 | – | –
52 | Cc1cc(C)c2c(N)nc(NC3CCN(Cc4ncc[nH]4)CC3)nc2n1 [Example 487] | 1 to 10 | 100 to 3000 | – | –
53 | Cc1cc(C)c2c(N)nc(NCCCN3CC(C(F)(F)F)C3)nc2n1 [Example 190] | 10 to 100 | 100 to 3000 | – | –
54 | CN1CCC(Nc2nc(N)c3cc(OC4COC4)cnc3n2)CC1 [Example 28, N^2-(1-methylpiperidin-4-yl)-6-(oxetan-3-yloxy)pyrido[2,3-d]pyrimidine-2,4-diamine] | > 100 | 0 to 100 | – | –
55 | Cc1cc(C)c2c(N)nc(NCCCN3CC(F)(F)C3)nc2n1 [Example 195] | > 31.6 | 0 to 100 | – | –
56 | CNc1nc(N[C@@H]2CN(C)C[C@@H]2O)nc2nc3c(c(C)c12)CCC3 [Example 658] | 1 to 10 | 100 to 3000 | – | –
57 | Cc1cc(C)c2c(N)nc(NC3CCN(Cc4ncco4)CC3)nc2n1 [Example 473] | 10 to 100 | 100 to 3000 | – | –
